Laboratory results published in patent US8685974B2 (Bayer CropScience AG, priority 2009, dated 2014).
Like-named read-outs stand apart in the source and are kept apart here. Marks after values point to notes of the source that are not given here.

Assays:
Fusarium proliferatum = experiment: Production of fumonisin FB1 by Fusarium proliferatum (microtiter plate, HPLC-MS/MS and OD620); format: cell-based; conditions: for % inhibition FB1 production at 50 μM: 5 days at 20° C., HPLC-MS/MS; for % inhibition fungal growth at 50 μM: Fusarium proliferatum, OD620 at start and after 5 days
Pyrenophora teres = experiment: In vivo test on Pyrenophora teres (barley net blotch); conditions: dose of 500 ppm; barley plants; grading 12 days after contamination
Procedure, shortened: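 Barley plants (Plaisant) grown at 12° C. sprayed at 1-leaf stage with compound in acetone/Tween/DMSO diluted in water; 24 h later inoculated with P. teres spores (12,000 spores/ml). Incubated 24 h at ~20° C., 100% RH, then 12 days at 80% RH; graded 12 days post-inoculation against untreated controls.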

Alternaria solani = experiment: Alternaria test (tomato) / protective; format: in vivo; conditions: 500 ppm active compound, protective spray, evaluated 7 days after inoculation
Procedure, shortened: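 Young tomato plants sprayed protectively with compound formulated in DMF with alkylaryl polyglycol ether emulsifier and diluted in water to the application rate. After inoculation, plants held at 96% rel. humidity and 20° C. Efficacy scored 7 days post-inoculation: 0% equals untreated control, 100% no infection.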

Fusarium graminearum = format: cell-based; conditions: 50 μM; for % Inhibition of DON/AcDON at 50 μM: 7 days at 28° C.
Leptosphaeria nodorum = Leptosphaeria nodorum test (wheat) / protective; format: in vivo; conditions: 500 ppm active compound, protective spray, evaluated 7-9 days after inoculation
Method: Leptosphaeria nodorum Test (Wheat)/Protective
Solvent: 49 parts by weight of N,N-dimethylformamide
Emulsifier: 1 part by weight of alkylaryl polyglycol ether
To produce a suitable preparation of active compound, 1 part by weight of active compound is mixed with the stated amounts of solvent and emulsifier, and the concentrate is diluted with water to the desired concentration.
To test for protective activity, young wheat plants are sprayed with the preparation of active compound at the stated application rate. […] The plants are then placed in a greenhouse at 90% rel. atmospheric humidity and a temperature of 22° C.
Evaluation is carried out 7-9 days after the inoculation. 0% means an efficacy which corresponds to that of the control, whereas an efficacy of 100% means that no infection is observed.

[1] = logP by HPLC on reversed phase columns, method [a] (pH 2.3); format: physicochemical; conditions: method [a]: pH 2.3, 0.1% phosphoric acid and acetonitrile as eluent; main isomer

Structure (SMILES) | efficacy (Alternaria solani) [%] | % Inhibition of fungal growth at 50 μM (Fusarium graminearum) [%] | % Inhibition of DON/AcDON at 50 μM (Fusarium graminearum) [%] | efficacy (Leptosphaeria nodorum) [%] | log p [1] | other results
CC(=O)n1cc(-c2ccncn2)c(-c2ccc(Cl)s2)n1 [Example 4] |  |  |  |  |  | log p (pH 2.7): 2.92^[b]; % inhibition FB1 production at 50 μM (Fusarium proliferatum): 89%; % inhibition fungal growth at 50 μM (Fusarium proliferatum): 22%
Clc1ccc(-c2nn(Cc3ccccc3)cc2-c2ccncn2)s1 [Example 5] |  |  |  |  |  | logP value of the minor isomer (in parenthesis in column Isomer ratio [d]) (minor isomer, main value of the example measured by method [b], pH 2.7): (3.17); log p (pH 2.7): 3.41^[b]; protection (Pyrenophora teres): 70%; % inhibition FB1 production at 50 μM (Fusarium proliferatum): 81%; % inhibition fungal growth at 50 μM (Fusarium proliferatum): 0%
CCC(C)n1cc(-c2ccnc(C#N)c2)c(-c2ccc(Cl)s2)n1 (stereo not shown) [Example 97] | 90 |  |  |  |  | log p (pH 2.7): 4.41^[b]; % inhibition FB1 production at 50 μM (Fusarium proliferatum): 99%; % inhibition fungal growth at 50 μM (Fusarium proliferatum): 17%
CC(C)Cn1cc(-c2ccnc(NC(=O)C(C)C)n2)c(-c2ccc(Cl)s2)n1 [Example 98] |  |  |  |  |  | log p (pH 2.3): 3.67^[a]; % inhibition FB1 production at 50 μM (Fusarium proliferatum): 97%; % inhibition fungal growth at 50 μM (Fusarium proliferatum): 4%
COc1ccc(Cn2nc(-c3ccc(Cl)s3)c(-c3ccncc3)c2C2CC2)cc1 [Example 101] |  |  |  |  |  | log p (pH 2.7): 2.69^[b]; % inhibition FB1 production at 50 μM (Fusarium proliferatum): 87%; % inhibition fungal growth at 50 μM (Fusarium proliferatum): 0%
CCC(C)n1cc(-c2ccncc2)c(-c2ccc(F)s2)n1 (stereo not shown) [Example 106] | 100 | 98 | 99 |  |  | log p (pH 2.7): 1.78^[b]; % inhibition FB1 production at 50 μM (Fusarium proliferatum): 98%; % inhibition fungal growth at 50 μM (Fusarium proliferatum): 39%
CCC(C)n1ncc(-c2ccncc2)c1-c1ccc(F)s1 (stereo not shown) [Example 107] |  | 86 | 100 |  |  | log p (pH 2.7): 1.69^[b]; % inhibition FB1 production at 50 μM (Fusarium proliferatum): 80%; % inhibition fungal growth at 50 μM (Fusarium proliferatum): 1%
CC(C)n1cc(-c2ccncc2)c(-c2ccc(F)s2)n1 [Example 108] | 100 | 99 | 100 |  |  | log p (pH 2.7): 1.53^[b]; % inhibition FB1 production at 50 μM (Fusarium proliferatum): 100%; % inhibition fungal growth at 50 μM (Fusarium proliferatum): 25%
CCC(C)n1cc(-c2ccnc(NC(C)=O)c2)c(-c2ccc(Cl)s2)n1 (stereo not shown) [Example 110] | 95 | 99 | 100 | 95 |  | log p (pH 2.7): 2.94^[b]; protection (Pyrenophora teres): 100%; % inhibition FB1 production at 50 μM (Fusarium proliferatum): 99%; % inhibition fungal growth at 50 μM (Fusarium proliferatum): 86%
CCC(=O)Nc1cc(-c2cn(C(C)CC)nc2-c2cc(Cl)cs2)ccn1 (stereo not shown) [Example 164, N-{4-[1-sec-Butyl-3-(4-chloro-2-thienyl)-1H-pyrazol-4-yl]pyridin-2-yl}propanamide] | 90 |  |  | 95 |  | chromatographic logP (physchem; pH 2.7): 3.07; chromatographic logP (physchem; pH 7.8): 3.59; protection (Pyrenophora teres): 100%
CCC(C)n1cc(-c2ccncc2)c(-c2cc(Cl)cs2)n1 (stereo not shown) [Example 167, 4-[1-sec-Butyl-3-(4-chloro-2-thienyl)-1H-pyrazol-4-yl]pyridine] | 90 |  |  | 90 |  | logP value of the minor isomer (pH 2.7): (1.76); chromatographic logP (physchem; pH 2.7): 1.86; protection (Pyrenophora teres): 95%
CCC(=O)Nc1cc(-c2cn(CC(C)C)nc2-c2ccc(Cl)s2)ccn1 [Example 396] | 100 | 30 | 100 |  | 3.33^[a] | protection (Pyrenophora teres): 70%
CC(C)Cn1cc(-c2ccnc(NC(=O)C(C)C)c2)c(-c2ccc(Cl)s2)n1 [Example 397] | 100 | 32 | 97 |  | 3.83^[a] | protection (Pyrenophora teres): 90%
CC(C)Cn1cc(-c2ccnc(O)n2)c(-c2ccc(Cl)s2)n1 [Example 398] |  |  |  |  | 2.62^[a] | 
Cc1cn(-c2cc(-c3cn(CC(C)C)nc3-c3ccc(Cl)s3)ccn2)cn1 [Example 399] | 78 | 0 | 90 |  | 2.56^[a] | 
CCC(C)n1cc(-c2ccncc2)c(-c2ccc(C(F)(F)F)s2)n1 (stereo not shown) [Example 400] |  | 0 | 99 |  | 2.58^[a] | 
CC(C)n1cc(-c2ccncc2)c(-c2ccc(C(F)(F)F)s2)n1 [Example 401] | 78 | 0 | 99 |  | 2.2^[a] | 

Structure (SMILES) | efficacy (Alternaria solani) [%] | % Inhibition of fungal growth at 50 μM (Fusarium graminearum) [%] | % Inhibition of DON/AcDON at 50 μM (Fusarium graminearum) [%] | efficacy (Leptosphaeria nodorum) [%] | log p [1] | other results
FC(F)(F)c1ccc(-c2c(-c3ccncc3)cnn2C2CCCCO2)s1 (stereo not shown) [Example 403] |  |  |  |  | 1.94^[a] | 
Brc1ccc(-c2n[nH]cc2-c2ccncc2)s1 [Example 408] | 70 | 0 | 97 | 78 | 0.94^[a] | 
c1cc(-c2c[nH]nc2-c2cc3ccsc3s2)ccn1 [Example 409] |  |  |  | 78 | 1.13^[a] | 
CC(=O)Nc1nccc(-c2cn(CC(C)C)nc2-c2ccc(Cl)s2)n1 [Example 410] |  | 0 | 83 | 94 | 3.04^[a] | 
CC(C)Cn1cc(-c2ccnc(NC(C)C)n2)c(-c2ccc(Cl)s2)n1 [Example 411] |  | 98 | 99 |  | 4.34^[a] | 
CC#Cc1c(-c2ccncc2)c(-c2ccc(Cl)s2)nn1C(C)C [Example 412] | 90 | 98 | 93 | 70 | 2.78^[a] | 
CC(C)Cn1nc(C2CC2)c(-c2ccncc2)c1-c1ccc(Cl)s1 [Example 413] |  |  |  | 70 | 2.61^[a] | 
CC(C)Cn1nc(-c2ccc(Cl)s2)c(-c2ccncc2)c1C1CC1 [Example 414] |  | 11 | 84 |  | 2.7^[a] | 
CCC(C)n1nc(C2CC2)c(-c2ccncc2)c1-c1ccc(Cl)s1 (stereo not shown) [Example 415] |  |  |  |  | 2.73^[a] | 
CCC(C)n1nc(-c2ccc(Cl)s2)c(-c2ccncc2)c1C1CC1 (stereo not shown) [Example 416] |  | 8 | 91 | 70 | 2.75^[a] | 
CC(C)n1nc(C2CC2)c(-c2ccncc2)c1-c1ccc(Cl)s1 [Example 417] |  |  |  | 80 | 2.44^[a] | 
CC(C)n1nc(-c2ccc(Cl)s2)c(-c2ccncc2)c1C1CC1 [Example 418] |  |  |  |  | 2.44^[a] | 
CC#Cc1[nH]nc(-c2ccc(Cl)s2)c1-c1ccncc1 [Example 419] |  |  |  |  | 1.44^[a] | 
CC(C)Cn1cc(-c2ccnc3ccccc23)c(-c2ccc(Cl)s2)n1 [Example 421] | 89 |  |  |  | 3.69^[a] | 
CC(C)Cn1cc(-c2cc(O)ncn2)c(-c2ccc(Cl)s2)n1 [Example 422] |  |  |  |  | 2.84^[a] | 
CC(C)Cn1cc(-c2cc(N)ncn2)c(-c2ccc(Cl)s2)n1 [Example 423] | 94 | 91 | 99 | 80 | 1.97^[a] | protection (Pyrenophora teres): 75%
